The record followed here is patent US11641858B2, “Agricultural chemicals” (Redag Crop Protection Ltd, priority 2016, dated 2023).

Structures are written as SMILES.

In experiment [1] the test system is Pythium ultimum. The experiment is described as follows: Amended agar assay (potato dextrose agar), reduction in colony growth. Format: cell-based. To be noted: Globisporangium ultimum; descending test concentrations, 5-fold dilutions typically down to 0.032 ppm; read-out: Pythium ultimum (EC50). The method, then: (§1) Testing was carried out on potato dextrose agar (PDA) amended with each compound at test concentrations of 20, 4 and 0.8, 0.16 and 0.032 ppm. Amended agar at each test concentration was poured into three replicate 9 cm petri dishes. Each replicate dish was inoculated in the centre with a 5 mm agar plug taken from the leading edge of a culture aged between 2 and 7 days old; the age of the culture was dependant on the growth rate of the pathogen being tested. The test pathogens were Pythium ultimum and Phytophthora cinnamomi. Plates were incubated at 18° C. and the diameter of each colony measured before growth on the fastest growing plate reached the plate edge. This varied between 2 and 7 days depending on the growth rate of test pathogens. The % reduction in colony growth compared to the control was calculated for each test concentration and pathogen combination.
(§2) The results are shown in Table 1 in which * represents an average control of up to 50% at said dosage; ** represents an average control of 50% or greater but less than 80% at said dosage; and *** represents an average control of 80% or greater at said dosage.
(§3) A primary screen was also conducted for a number of other compounds of the invention. The screen was conducted at 20 ppm and the results are provided in Table 2, in which D represents no control detected at this concentration; C represents up to 50% control; B from 50 to 99% control; and A represents a control of greater than 99%.
(§4) Alternatively, or in addition, the same assay was conducted at descending test concentrations with 5-fold dilutions typically down to 0.032 ppm, and an EC50 (the concentration at which 50% control would be achieved) was determined. The results are provided in Table 1 in which G represents an EC50 above 20 ppm, F represents an EC50 of 2-20 ppm and E represents and EC50 less than 2 ppm.

Experiment [2] has as its system Phytophthora cinnamomi. Described as above. It is filed as cell-based. To be noted: descending test concentrations, 5-fold dilutions typically down to 0.032 ppm, read-out: Phytophthora cinnamomi (EC50). On the procedure:
as §1, §2, §3, §4

Take `CCC(CC)C(=O)Nc1cccc(COc2nc3ccccc3n2-c2nnnn2C)n1` [Example 36]: the EC50 in experiment [1] and in experiment [2] was below 2 µg/mL in each case.
`Cn1nnnc1-n1c(OCc2cccc(NC(=O)c3ccccn3)n2)nc2ccccc21` [Example 37, N-(6-(((1-(1-methyl-1H-tetrazol-5-yl)-1H-benzo[d]imidazol-2-yl)oxy)methyl)pyridin-2-yl)picolinamide]: the EC50 in experiment [1] and in experiment [2] was below 2 µg/mL in each case.
For the compound `Cn1nnnc1-n1c(OCc2cccc(NC(=O)Cc3ccccn3)n2)nc2ccccc21` [Example 38], the EC50 in experiment [1] and in experiment [2] was below 2 µg/mL throughout.
Take `CSCC(=O)Nc1cccc(COc2nc3ccccc3n2-c2nnnn2C)n1` [Example 39, N-(6-(((1-(1-methyl-1H-tetrazol-5-yl)-1H-benzo[d]imidazol-2-yl)oxy)methyl)pyridin-2-yl)-2-(methylthio)acetamide]: the EC50 in experiment [1] and in experiment [2] was below 2 µg/mL in each case.
Turning to `Cn1nnnc1-n1c(OCc2cccc(NC(=O)CC3CC3)n2)nc2ccccc21` [Example 40], the EC50 in experiment [1] and in experiment [2] was below 2 µg/mL each time.
Turning to `CSCCC(=O)Nc1cccc(COc2nc3ccccc3n2-c2nnnn2C)n1` [Example 41], the EC50 in experiment [1] and in experiment [2] was below 2 µg/mL each time.
In the case of `COCCC(=O)Nc1cccc(COc2nc3ccccc3n2-c2nnnn2C)n1` [Example 42], the EC50 in experiment [1] and in experiment [2] was below 2 µg/mL throughout.
As for `Cn1nnnc1-n1c(OCc2cccc(NC(=O)c3ccc(C#N)cc3)n2)nc2ccccc21` [Example 43], the EC50 in experiment [1] and in experiment [2] was below 2 µg/mL each time.
On to `Cn1nnnc1-n1c(OCc2cccc(NC(=O)CC(C)(C)C)n2)nc2ccccc21` [Example 44], for which the EC50 in experiment [1] and in experiment [2] was below 2 µg/mL in each case.
Consider `Cn1nnnc1-n1c(OCc2cccc(NC(=O)CCC(C)(C)C)n2)nc2ccccc21` [Example 45], for which the EC50 in experiment [1] and in experiment [2] was below 2 µg/mL in each case.
Take `Cn1nnnc1-n1c(OCc2cccc(NC(=O)CC3CCCCC3)n2)nc2ccccc21` [Example 46]: the EC50 in experiment [1] and in experiment [2] was below 2 µg/mL throughout.
For the compound `Cn1nnnc1-n1c(OCc2cccc(NC(=O)CCC3CCCCC3)n2)nc2ccccc21` [Example 47], the EC50 in experiment [1] and in experiment [2] was below 2 µg/mL each time.
`C#CCC(=O)Nc1cccc(COc2nc3ccccc3n2-c2nnnn2C)n1` [Example 48]: the EC50 in experiment [1] and in experiment [2] was above 20 µg/mL each time.
With `CC(C)CCC(=O)Nc1cccc(COc2nc3ccccc3n2-c2nnnn2C)n1` [Example 49], the EC50 in experiment [1] and in experiment [2] was below 2 µg/mL in each case.
`C=CCC(=O)Nc1cccc(COc2nc3ccccc3n2-c2nnnn2C)n1` [Example 50]: the concentration for a half-maximal effect (EC50) in experiment [1] and in experiment [2] was below 2 µg/mL throughout.
Take `CCC(C)C(=O)Nc1cccc(COc2nc3ccccc3n2-c2nnnn2C)n1` (stereo not shown) [Example 51]: the EC50 in experiment [1] and in experiment [2] was below 2 µg/mL throughout.
As to `Cn1nnnc1-n1c(OCc2cccc(NC(=O)C[S+](C)[O-])n2)nc2ccccc21` (stereo not shown) [Example 52, N-(6-(((1-(1-Methyl-1H-tetrazol-5-yl)-1H-benzo[d]imidazol-2-yl)oxy)methyl)pyridin-2-yl)-2-(methylsulfinyl)acetamide], the EC50 (as a rule, the midpoint of the concentration-response curve) in experiment [1] was above 20 µg/mL; in experiment [2], 2 to 20 µg/mL.
As to `Cn1nnnc1-n1c(OCc2cccc(NC(=O)CS(C)(=O)=O)n2)nc2ccccc21` [Example 53, N-(6-(((1-(1-methyl-1H-tetrazol-5-yl)-1H-benzo[d]imidazol-2-yl)oxy)methyl)pyridin-2-yl)-2-(methylsulfonyl)acetamide], the values for the EC50 in experiment [1] and in experiment [2] were 2 to 20 µg/mL and below 2 µg/mL, respectively.
The matching figures for `Cn1ccnc1-n1c(OCc2cccc(NC(=O)C(F)(F)Oc3ccccc3)n2)nc2ccccc21` [Example 54]: below 2 µg/mL and below 2 µg/mL.
The matching figures for `Cn1nnnc1-n1c(OCc2cccc(NC(=O)C(F)(F)Oc3ccccc3)n2)nc2c(F)cc(F)cc21` [Example 55]: below 2 µg/mL and below 2 µg/mL.
